Patent US20230264009A1, “DISINFECTING CAP KIT FOR LUER ACCESS DEVICES” (SterileCare Inc., priority 2022, published 2023)

Key:
C. albicans ON47 = assay: MIC, micro broth dilution; assay type: cell-based, Candida albicans; conditions: alone, 24 h
Method: (§1) An assay was made using a minimum inhibitory concentration (MIC) and minimum bactericidal concentration (MBC) and minimum fungicidal concentration (MFC) determination. The MIC was determined by the micro broth dilution method in 96-well plates. Serial two-fold dilutions of tetrasodium EDTA (from 2% to 0.015%), ethanol (from 50% to 0.1%) and chlorhexidine HCl (from 100 µg/mL to 0.025 µg/mL) were prepared in MH broth with a final volume of 90 µL per well. A 10 µL containing 1 × 10^5 bacterial cells or 2 × 10^3 fungal cells were added to each well. The inoculated plates were covered with a lid, sealed with Parafilm, and incubated for 24 h at 37° C. with slight rocking on a tilting platform shaker. After incubation, the optical density at 600 nm (OD 600 ) of the cultures in each well was measured using an xMark™ Microplate Absorbance Spectrophotometer (Bio-Rad). […] MBCs and MFCs were determined by transferring 100 µL from each well with no apparent growth onto appropriate agar plates, followed by incubation for 24 h at 37° C.

[1] = tested on: Staphylococcus aureus ON89; assay: MBC/MFC determination; assay type: cell-based; conditions: alone; S. aureus ON89
Method: as §1

Proteus mirabilis ON153 [2] = assay: MBC/MFC determination; assay type: cell-based; conditions: alone; P. mirabilis ON153
Method: as §1

[3] = tested on: Stenotrophomonas maltophilia ON17; assay: MBC/MFC determination; assay type: cell-based; conditions: alone; S. maltophilia ON17
Method: as §1

Candida albicans SK4b [4] = assay: MBC/MFC determination; assay type: cell-based; conditions: alone; C. albicans SK4b
Method: as §1

Serratia marcescens SK2 [5] = assay: MBC/MFC determination; assay type: cell-based; conditions: alone; S. marcescens SK2
Method: as §1

Escherichia coli ON29 [6] = assay: MBC/MFC determination; assay type: cell-based; conditions: alone; E. coli ON29
Method: as §1

[7] = tested on: Pseudomonas aeruginosa SK1; assay: MBC/MFC determination; assay type: cell-based; conditions: alone; P. aeruginosa SK1
Method: as §1

[8] = tested on: Staphylococcus epidermidis ON170; assay: MBC/MFC determination; assay type: cell-based; conditions: alone; S. epidermidis ON170
Method: as §1

S. epidermidis SK9 = assay: MBC/MFC determination; assay type: cell-based, Staphylococcus epidermidis; conditions: alone
Method: as §1

[9] = tested on: Staphylococcus aureus ON89; assay: MIC, micro broth dilution; assay type: cell-based; conditions: alone; S. aureus ON89; 24 h
Method: as §1

Proteus mirabilis ON153 [10] = assay: MIC, micro broth dilution; assay type: cell-based; conditions: alone; P. mirabilis ON153; 24 h
Method: as §1

[11] = tested on: Stenotrophomonas maltophilia ON17; assay: MIC, micro broth dilution; assay type: cell-based; conditions: alone; S. maltophilia ON17; 24 h
Method: as §1

Candida albicans SK4b [12] = assay: MIC, micro broth dilution; assay type: cell-based; conditions: alone; C. albicans SK4b; 24 h
Method: as §1

Serratia marcescens SK2 [13] = assay: MIC, micro broth dilution; assay type: cell-based; conditions: alone; S. marcescens SK2; 24 h
Method: as §1

Escherichia coli ON29 [14] = assay: MIC, micro broth dilution; assay type: cell-based; conditions: alone; E. coli ON29; 24 h
Method: as §1

[15] = tested on: Pseudomonas aeruginosa SK1; assay: MIC, micro broth dilution; assay type: cell-based; conditions: alone; P. aeruginosa SK1; 24 h
Method: as §1

[16] = tested on: Staphylococcus epidermidis ON170; assay: MIC, micro broth dilution; assay type: cell-based; conditions: alone; S. epidermidis ON170; 24 h
Method: as §1

[17] = tested on: 48-h-old biofilms of bacterial and fungal strains; assay: MBEC Assay, 24 h exposure (summary); assay type: cell-based; conditions: following 24 h of treatment
Method: A biofilm cultivation cell composition was provided. This fifth composition was created using an MBEC Assay® biofilm inoculator, consisting of a polystyrene lid with 96 downward-protruding pegs and a corresponding base used to grow biofilms. A standardized inoculum was diluted in an appropriate biofilm growth medium to achieve a viable cell count of 1.5 × 10^6 CFU/mL of bacterial cells or […] CFU/mL of fungal cells. Then, 150 µL of this inoculum was transferred into each appropriate well, and the peg lids were inserted into the microtiter plates. The plates were sealed with Parafilm and were incubated at optimum temperature for 48 h with slight rocking for bacteria and shaking at 200 rpm for fungal strains. After incubation, the peg lid was removed from the base and rinsed twice with sterile phosphate-buffered saline (PBS) for 2 min to remove loosely attached non-sessile cells. Before the antimicrobial challenge, the pegs in column 1 (n = 8) were considered the biofilm growth control; these pegs were removed from the lids, placed into 200 µL of recovery medium, and analyzed for starting biofilm cell numbers as described below. […] After the antimicrobial challenge, the pegs were rinsed twice with sterile PBS for 2 min and placed into a new 96-well plate containing 200 µL of recovery medium. The recovery plates were sealed with Parafilm, and biofilm cells were dislodged from the pegs by sonication for 30 min with a Branson 3510 bath sonicator. The biofilm cells in the recovery medium were serially diluted, and a drop dilution assay was performed to enumerate the viable cells. MBEC values were determined as the minimum concentration of antimicrobials that yielded a viable cell count at or lower than the 125 CFU/mL detection limit.

O=C([O-])CN(CCN(CC(=O)[O-])CC(=O)[O-])CC(=O)[O-].[Na+].[Na+].[Na+].[Na+] [EDTA, tetrasodium EDTA]
2 % w/v: MBC/MFC (Proteus mirabilis ON153 [2]) | MBC/MFC (Serratia marcescens SK2 [5]) | MIC (Serratia marcescens SK2 [13])
0.5 % w/v: MBC/MFC [8] | MBC/MFC (S. epidermidis SK9) | MIC (Escherichia coli ON29 [14])
1 % w/v: MIC (C. albicans ON47) | MBC/MFC [1] | MBC/MFC [3] | MBC/MFC (Candida albicans SK4b [4]) | MBC/MFC (Escherichia coli ON29 [6]) | MBC/MFC [7] | MIC (Proteus mirabilis ON153 [10]) | MIC (Candida albicans SK4b [12])
0.063 % w/v: MIC [9] | MIC [11] | MIC [16]
4%: Concentration alone able to eradicate all established biofilms [17]
0.25 % w/v: MIC [15]
